{
  "source": "patent US20060252723A1",
  "about": "“Combined therapy utilizing reduction of DNA methyltransferase expression and/or activity and interferon” (Methylgene, Inc. The Cleveland Clinic Foundation, priority 2005, published 2006)",
  "key": {"RASSF1A": {"test_system": "RASSF1A", "assay": "RT-PCR for RASSF1A", "type": "cell-based, human", "details": "ACHN cells; data not shown"}, "ACHN cells [1]": {"test_system": "ACHN cells", "assay": "TUNEL flow cytometric analysis of apoptosis", "type": "cell-based, human", "details": "for resistance to IFN-induced apoptosis after pretreatment: FIG. 2A; for apoptosis, agent alone: FIG. 2B", "protocol": "After the indicated time of DNMT1 inhibition cells were plated at 5000 cells/cm^2 for TUNEL assay with IFNs added 16 hr after plating. Four to 5 days after IFN administration cells were harvested and processed according to the manufacturer's instructions for TUNEL flow cytometric analysis (BD Pharmingen, San Diego, Calif.)."}, "ACHN cells [2]": {"test_system": "ACHN cells", "assay": "cDNA array analysis (Affymetrix U133A)", "type": "cell-based, human", "from_the_text": "To identify additional genes reactivated through DNA demethylation and of potential importance for the sensitization to IFN-induced apoptosis we performed cDNA array analysis with RNA harvested from ACHN cells 24 hr after the 8th DNMT1 AS transfection and 16 hr after 50 U/ml IFN β 1a treatment. RNA was harvested as mentioned above using Trizol (Invitrogen, Carlsbad, Calif.) method followed by transcription into cRNA, according to Affymetrix (Santa Clara, Calif.) recommendations for U133A array hybridization. Expression was analyzed using Affymetrix software."}, "DNMT1 protein": {"target": "T1, DNMT1 protein (Homo sapiens, UniProt P26358)", "T1 construct": "endogenous in cells; host or cells: ACHN renal cell carcinoma cells", "T1 sequence (P26358 whole entry)": "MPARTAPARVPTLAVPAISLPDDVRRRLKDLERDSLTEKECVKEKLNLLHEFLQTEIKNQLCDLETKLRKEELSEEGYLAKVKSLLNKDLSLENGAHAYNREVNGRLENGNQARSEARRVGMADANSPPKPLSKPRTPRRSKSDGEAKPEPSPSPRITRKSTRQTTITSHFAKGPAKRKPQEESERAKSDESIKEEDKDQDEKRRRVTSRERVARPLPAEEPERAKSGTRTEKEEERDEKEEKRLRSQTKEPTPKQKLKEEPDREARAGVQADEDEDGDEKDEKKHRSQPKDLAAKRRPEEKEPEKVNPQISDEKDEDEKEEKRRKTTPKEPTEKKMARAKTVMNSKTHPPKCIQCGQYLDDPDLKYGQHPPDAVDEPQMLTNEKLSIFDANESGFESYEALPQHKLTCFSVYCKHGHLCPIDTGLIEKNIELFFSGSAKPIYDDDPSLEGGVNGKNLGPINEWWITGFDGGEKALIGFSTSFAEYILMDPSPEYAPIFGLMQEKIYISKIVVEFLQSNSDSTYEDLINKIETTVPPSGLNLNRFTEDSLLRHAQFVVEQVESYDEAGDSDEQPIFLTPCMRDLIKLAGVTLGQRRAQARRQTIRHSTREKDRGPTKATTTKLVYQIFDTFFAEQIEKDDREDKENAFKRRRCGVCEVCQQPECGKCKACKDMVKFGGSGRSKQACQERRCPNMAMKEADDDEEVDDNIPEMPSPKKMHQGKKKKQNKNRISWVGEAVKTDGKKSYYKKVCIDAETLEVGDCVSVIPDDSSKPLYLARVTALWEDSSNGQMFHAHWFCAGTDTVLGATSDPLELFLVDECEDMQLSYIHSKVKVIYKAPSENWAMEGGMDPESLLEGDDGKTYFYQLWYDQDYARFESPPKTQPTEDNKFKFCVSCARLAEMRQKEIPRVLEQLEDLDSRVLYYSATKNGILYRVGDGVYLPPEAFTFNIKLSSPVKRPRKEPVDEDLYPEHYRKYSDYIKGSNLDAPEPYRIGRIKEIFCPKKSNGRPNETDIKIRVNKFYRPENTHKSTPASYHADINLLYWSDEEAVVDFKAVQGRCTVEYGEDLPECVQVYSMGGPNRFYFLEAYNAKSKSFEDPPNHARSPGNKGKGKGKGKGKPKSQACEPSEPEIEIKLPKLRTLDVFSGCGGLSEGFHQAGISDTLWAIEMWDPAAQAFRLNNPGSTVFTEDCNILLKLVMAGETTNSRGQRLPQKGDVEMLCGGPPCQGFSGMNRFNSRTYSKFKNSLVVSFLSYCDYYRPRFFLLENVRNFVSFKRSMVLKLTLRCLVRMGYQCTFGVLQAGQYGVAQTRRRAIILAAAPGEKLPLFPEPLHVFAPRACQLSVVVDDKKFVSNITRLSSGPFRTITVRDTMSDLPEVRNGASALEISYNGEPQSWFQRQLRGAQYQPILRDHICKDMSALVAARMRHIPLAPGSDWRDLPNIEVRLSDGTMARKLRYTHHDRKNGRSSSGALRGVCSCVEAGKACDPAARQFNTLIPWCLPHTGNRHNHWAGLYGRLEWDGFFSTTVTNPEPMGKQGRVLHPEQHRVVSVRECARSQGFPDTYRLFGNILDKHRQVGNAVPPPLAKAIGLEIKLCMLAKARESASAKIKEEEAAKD", "assay": "DNMT1 protein immunoblot after DNMT1 AS or 5-AZA-dC treatment", "type": "cell-based", "details": "ACHN cells; 40 nM DNMT1 AS daily over 9 days or 200 nM 5-AZA-dC daily over 4 days; protein 4, 24, 48 hrs after last treatment", "protocol": "ACHN Renal cell carcinoma cells were cultured at 37° C. in 5% CO2 using Minimum Essential Medium (GIBCO, Invitrogen, Carlsbad, Calif.) with 0.1 mM non-essential amino acids (GIBCO), 1.0 mM pyruvate (GIBCO), 10% fetal bovine serum, penicillin G (50 U/ml), and streptomycin (50 μg/ml). WM9 melanoma cells (13) were grown in RPMI medium (GIBCO) containing 10% fetal bovine serum, penicillin G (50 U/ml), and streptomycin (50 μg/ml) under the same incubator conditions.\nTo selectively downregulate DNMT1, cells were transfected with MG98 (MethylGene, Quebec, Canada), a second-generation 4×4 2′methyl phosphorothioate oligonucleotide antisense against the 3′ UTR of DNMT1 mRNA (5′-[…]-3) or mismatch (underlined) control oligonucleotide (5′-[…]-3′) (SEQ ID NO:40) at indicated concentrations starting one day after plating at 15000 cells/cm^2. Transfections were performed daily with 6.25 μg/ml Lipofectin (Invitrogen, Carlsbad, Calif.) in OptiMem (GIBCO, Invitrogen, Carlsbad, Calif.) over 4 hr. Before and after transfections cells were washed once with PBS. Every second day cells were replated at 15000 cells/cm^2 four hr after the preceding transfection. 5-AZA-dC (Sigma-Aldrich, St Louis, Mo.) stock solution (100 mM) in DMSO and working solutions for one time use in PBS (1 mM) were stored at −20° C. […]"}, "ACHN cells [3]": {"test_system": "ACHN cells", "assay": "growth of ACHN cells (data not shown)", "type": "cell-based, human"}, "RASSF1A promoter region": {"test_system": "RASSF1A promoter region", "assay": "methylation specific PCR of RASSF1A", "type": "cell-based, human", "details": "ACHN cells", "protocol": "One microgram of genomic DNA, harvested with a blood DNA mini kit (Quiagen, Valencia, Calif.), was used for bisulfite modification with the CpGenome kit (Chemicon International, Temecula, Calif.) according to the manufacturer's instructions with final resuspension in 20 μl of 10 mM Tris/Ci, pH 8.5. Four μl of bisulfite modified DNA was used per 25 μl MSP reaction. Primers for RASSF1A MSP as published (15) were (5′ to 3′): M forward: GGG TTT TGC GAG AGC GCG (SEQ ID NO:41), M reverse: GCC AAG CGC AAA CAA TCG (SEQ ID NO:42), U forward: GGT TIT GTG AGA GTG TGT TTA G (SEQ ID NO:43), U reverse: AAACCAAACACAAACAATCAC (SEQ ID NO:44). PCR settings for methylated (M) primer pair were denaturation at 95° C. for 5 min, followed by 35 cycles with a 1 min denaturation step, 30 sec annealing at 60° C., and extension at 72° C. for 30 sec. Final extension after 35 cycles was at 72° C. for 4 min. For sequences specific for unmethylated (U) DNA settings were the same except for annealing at 55° C."}, "ACHN cells [4]": {"test_system": "ACHN cells", "assay": "real-time RT-PCR for stat1, stat2 genes", "type": "cell-based, human"}, "caspase 3": {"test_system": "caspase 3", "assay": "caspase 3 activity assay", "type": "cell-based, human", "details": "FIG. 3; pretreatment alone"}, "[5]": {"assay": "Phase I studies of MG98, toxicity"}, "tumour xenograft models": {"test_system": "tumour xenograft models", "assay": "tumour xenograft models", "type": "in vivo", "details": "daily dosing compared to intermittent administration"}},
  "data": [
    {"compound": "5′-TTAATGTAACCTAAGGTCAA-3′ (listed as DNA, chemistry not given here) [MM, mismatch control oligonucleotide]", "values": [
      {"measurement": "amplification of full length RASSF1A cDNA", "setting": "RASSF1A", "value": "no band"},
      {"measurement": "cells apoptotic on TUNEL staining (up to)", "setting": "ACHN cells [1]; 5-AZA-dC over 24 days or oligonucleotide transfection over 6 to 8 days, then 50 U/ml IFN α or IFN β, 4-5 days after IFN", "value": "not"},
      {"measurement": "resistance to IFN-induced apoptosis after pretreatment", "setting": "ACHN cells [1]", "value": "did not"},
      {"measurement": "apoptosis, agent alone", "setting": "ACHN cells [1]", "value": "did not result in significant apoptosis"}
    ]},
    {"compound": "5′-UUCATGTCAGCCAAGGCCAC-3 (all phosphorothioate, sugars by position and methylation of C not given here; 2'-O-methyl gapmer) [MG98, second-generation 4×4 2′methyl phosphorothioate oligonucleotide antisense against the 3′ UTR of DNMT1 mRNA]", "values": [
      {"measurement": "number of genes increased at least two-fold compared to the mismatch oligonucleotide", "setting": "ACHN cells [2]; DNMT1 AS alone, data not shown", "value": "One hundred and thirty-seven"},
      {"measurement": "expression of genes known to be involved in IFN-induced apoptosis", "setting": "ACHN cells [2]; Table 2", "value": "not significantly altered"},
      {"measurement": "reduction in DNMT1 expression", "setting": "ACHN cells [2]; compared to mismatch oligonucleotide", "value": 94, "unit": "%"},
      {"measurement": "expression of other DNMTs", "setting": "ACHN cells [2]; compared to mismatch oligonucleotide, data not shown", "value": "without affecting expression of other DNMTs"},
      {"measurement": "increase of IFN-stimulated gene IF127 over MM treated cells", "setting": "ACHN cells [2]; p<0.045", "value": "at least two-fold"},
      {"measurement": "Fold change in expression, Caspase 4", "setting": "ACHN cells [2]; relative to MM", "value": "1.41 (MI) fold"},
      {"measurement": "Fold change in expression, HSXIAPAF1 (XAF1)", "setting": "ACHN cells [2]; relative to MM", "value": "3.36 (NS) fold"},
      {"measurement": "Fold change in expression, IRF1", "setting": "ACHN cells [2]; relative to MM", "value": "1.32 (NS) fold"},
      {"measurement": "Fold change in expression, OAS1", "setting": "ACHN cells [2]; relative to MM", "value": "0.80 (NS) fold"},
      {"measurement": "Fold change in expression, PRKR (PKR)", "setting": "ACHN cells [2]; relative to MM", "value": 0.71, "unit": "fold"},
      {"measurement": "Fold change in expression, Stat1", "setting": "ACHN cells [2]; relative to MM", "value": 0.60, "unit": "fold"},
      {"measurement": "Fold change in expression, Stat2", "setting": "ACHN cells [2]; relative to MM", "value": "0.68 (NS) fold"},
      {"measurement": "Fold change in expression, TNFSF10 (TRAIL/Apo2L)", "setting": "ACHN cells [2]; relative to MM", "value": "0.93 (NS) fold"},
      {"measurement": "amplification of full length RASSF1A cDNA", "setting": "RASSF1A", "value": "single band"},
      {"measurement": "DNMT1 protein", "setting": "DNMT1 protein", "value": "suppressed up to 48 hrs"},
      {"measurement": "growth", "setting": "ACHN cells [3]", "value": "reduced"},
      {"measurement": "methylation of RASSF1A promoter region", "setting": "RASSF1A promoter region", "value": "led to demethylation"},
      {"measurement": "stat1 expression, fold change over untreated", "setting": "ACHN cells [4]", "value": 0.27, "unit": "fold"},
      {"measurement": "stat2 expression, fold change over untreated", "setting": "ACHN cells [4]", "value": 1.05, "unit": "fold"},
      {"measurement": "resistance to IFN-induced apoptosis after pretreatment", "setting": "ACHN cells [1]", "value": "overcome"},
      {"measurement": "apoptosis, agent alone", "setting": "ACHN cells [1]", "value": "did not result in significant apoptosis"},
      {"measurement": "caspase 3 activity", "setting": "caspase 3", "value": "increased caspase 3 activity"},
      {"measurement": "dose levels resulting in frequent adverse events", "setting": "[5]; Phase I, 21-day infusion", "value": "above 80 mg/m^2/day"},
      {"measurement": "toxicity seen in nephrectomized patients", "setting": "[5]; intermittent schedule, 160 mg/m^2/day is 44% below the dose concerned", "value": "grade 3 transaminitis"},
      {"measurement": "anti-tumour activity", "setting": "tumour xenograft models", "value": "greatest anti-tumour activity"}
    ]},
    {"compound": "Nc1ncn([C@H]2C[C@H](O)[C@@H](CO)O2)c(=O)n1", "note": "[5-AZA-dC, 5-aza-deoxycytidine, reference compound]", "values": [
      {"measurement": "DNMT1 protein", "setting": "DNMT1 protein", "value": "suppressed up to 48 hrs"},
      {"measurement": "stat1 expression, fold change over untreated", "setting": "ACHN cells [4]", "value": 0.57, "unit": "fold"},
      {"measurement": "stat2 expression, fold change over untreated", "setting": "ACHN cells [4]", "value": 1.38, "unit": "fold"},
      {"measurement": "resistance to IFN-induced apoptosis after pretreatment", "setting": "ACHN cells [1]", "value": "overcome"},
      {"measurement": "TUNEL positive", "setting": "ACHN cells [1]; agent alone, no IFN, 5-AZA-dC 4 days", "value": 20, "unit": "%"},
      {"measurement": "caspase 3 activity", "setting": "caspase 3", "value": "increased caspase 3 activity"}
    ]}
  ]
}
